Laboratory results as given in US20030040510A1, “Selective estrogen receptor modulators in combination with estrogens” (Endorecherche, Inc., priority 2000, published 2003).
Where “and” joins values, the source holds several entries; their conditions need not be identical. Equal entries are not always repeated. Entries after “also recorded” stand apart in the source; their conditions may differ. Marks after values point to notes of the source that are not given here.

Tests used:
[1] = tested on: uterus and vagina of ovariectomized nude mice; experiment: Uterine, vaginal and body weight in the xenograft-bearing OVX nude mice (Example 1); details: OVX + E1
[2] = tested on: bone metabolism in the rat; experiment: Biochemical parameters of bone metabolism (urine, serum) after DHEA and/or EM-800; assay type: in vivo; details: DHEA 10 mg, EM-800 75 μg
Excerpt: Data are expressed as the means±SEM.**: P<0.01 experimental versus respective control.
It is particularly important to indicate that the combination of DHEA and EM-800 exerted unexpected beneficial effects on important biochemical parameters of bone metabolism. […] Moreover, no effect of DHEA could be detected on daily urinary calcium or phosphorus excretion (Luo et al., Endocrinology 138: 4435-4444, 1997). EM-800, decreased the urinary hydroxyproline/creatinine ratio by 48% while, similarly to DHEA, no effect of EM-800 was seen on urinary calcium or phosphorus excretion. EM-800, moreover, had no effect on serum alkaline phosphatase activity, a marker of bone formation while DHEA increased the value of the parameter by about 75% (Luo et al., Endocrinology 138: 4435-4444, 1997).

[3] = tested on: rat mammary gland and endometrium; experiment: 12-week EM-800 treatment of intact rats: serum 17β-estradiol, mammary gland, endometrium; assay type: in vivo; details: 12 weeks
Procedure: B. Animal treated with EM-800 (0.5 mg/kg, b w per day) for 12 weeks. […] Insert.
B. Animal treated with EM-800 (0.5 mg/kg, b w per day) during 12 weeks.

[4] = tested on: breast and endometrial tissues; experiment: Antiestrogens tested for SERM function and estrogenic activity in breast and endometrium
Excerpt: As used herein, a selective estrogen receptor modulator (SERM) is a compound that either directly or through its active metabolite functions as an estrogen receptor antagonist (“antiestrogen”) in breast tissue, yet provides estrogenic or estrogen-like effect on bone tissue and on serum cholesterol levels (i.e. by reducing serum cholesterol). Non-steroidal compounds that function as estrogen receptor antagonists in vitro or in human or rat breast tissue (especially if the compound acts as an antiestrogen on human breast cancer cells) is likely to function as a SERM. Conversely, steroidal antiestrogens tend not to function as SERMs because they tend not to display any beneficial effect on serum cholesterol. […] These SERMs may be called “pure SERMs”. […] This second series of SERMs may be called “mixed SERMs”. The unwanted estrogenic activities of these “mixed SERMs”, may be inhibited by addition of pure “SERMs” as shown in FIGS. 6 and 7 in in vitro tests and in FIG. 9 in an in vivo test of breast cancer.

[5] = tested on: bone metabolism in the rat; details: cited from earlier work
[6] = tested on: ovariectomized rats; experiment: 5-diol alone or with Flutamide and/or EM-800 for 12 months in ovariectomized rats (bone mass, serum markers)
[7] = tested on: ZR-75-1 breast tumor xenografts; experiment: Growth of human ZR-75-1 breast tumor xenografts in OVX nude mice supplemented with estrone (DHEA, EM-800; Example 1); details: OVX + E1; for Inhibition of E1-stimulated ZR-75-1 tumor size / Average tumor weight: 9.5 months
[8] = Concentration of EM-652 in the circulation, 6-month rat study; assay type: in vivo; details: intact rats, EM-652 0.5 mg/kg daily, 6-month study
[9] = EM-800 0.5 mg/kg per day, 0.5 mg/kg/day

## CC1=C(c2ccc(OC(=O)C(C)(C)C)cc2)[C@H](c2ccc(OCCN3CCCCC3)cc2)Oc2cc(OC(=O)C(C)(C)C)ccc21 [EM-800, (+)-7-pivaloyloxy-3-(4′-pivaloyloxyphenyl)-4-methyl-2-(4″-(2′″-piperidinoethoxy)phenyl)-2H-benzopyran]
[1]; EM-800 15 μg
  Uterine weight: 49 ± 3 mg
  Vaginal weight: 23 ± 1 mg
[1]; EM-800 50 μg
  Uterine weight: 36 ± 2 mg
  Vaginal weight: 15 ± 1 mg
[1]; EM-800 100 μg
  Uterine weight: 32 ± 1 mg
  Vaginal weight: 11 ± 1 mg
[2]
  Serum tALP: 114.11 ± 11.26 IU/L
  Urine HP/Cr: 6.81 ± 0.84** μmol/mmol
  Urine calcium: 17.44 ± 4.5 μmol/24h/100g
  Urine phosphorus: 102.03 ± 25.13 μmol/24h/100g
[3]; EM-800 0.5 mg/kg orally daily
  Elevation of circulating 17β-estradiol vs intact animals: 50%
[3]; [9]
  Endometrium histology: luminal epithelium is markedly reduced in height; also recorded: marked atrophy of the endometrium
  Mammary gland histology: lobules (L) are reduced in size; also recorded: marked atrophy of the mammary gland
[3]; intact rats, EM-800 0.5 mg/kg orally daily
  Circulating levels of 17β-estradiol: 143.5 ± 7.8 pg/mL
[4]
  Function as SERM: found to function as SERMs
[4]; physiological or pharmacological concentrations
  Estrogenic activity in breast and endometrial tissues: do not have any estrogenic activity
[5]
  Decrease of urinary hydroxyproline/creatinine ratio: 48%
  Effect on daily urinary calcium or phosphorus excretion: no effect
  Increase of serum alkaline phosphatase activity: had no effect
[6]; EM-800 100 μg s.c. daily added to 5-diol
  Additional stimulation of femoral BMD compared to 5-diol alone: 28.4%
[6]; added to 5-diol, proximal tibia
  Effect on 5-diol action on bone volume, trabecular number and trabecular separation (histomorphometry): further enhanced
[6]; addition of EM-800 to 5-diol
  Decrease of serum cholesterol: 62%
[7]; EM-800 15 μg oral daily
  Inhibition of E1-stimulated ZR-75-1 tumor size: 88% and 87.5%
[7]; EM-800 50 μg oral daily
  Inhibition of E1-stimulated ZR-75-1 tumor size: 93% and 93.5%
[7]; EM-800 100 μg oral daily
  Inhibition of E1-stimulated ZR-75-1 tumor size: 94%
[7]; EM-800 15 μg
  Category of response: Partial: 1 (5.9) Number and (%)
  Category of response: Stable: 5 (29.4) Number and (%)
  Average tumor weight: 0.08 ± 0.03 g
[7]; EM-800 50 μg
  Category of response: Complete: 4 (25.0) Number and (%)
  Category of response: Partial: 3 (18.8) Number and (%)
  Category of response: Progression: 4 (25.0) Number and (%)
  Category of response: Stable: 5 (31.2) Number and (%)
  Average tumor weight: 0.03 ± 0.01 g
[7]; EM-800 100 μg
  Category of response: Complete: 8 (50.0) Number and (%)
  Category of response: Partial: 0 (0) Number and (%)
  Category of response: Progression: 5 (31.2) Number and (%)
  Category of response: Stable: 3 (18.8) Number and (%)
  Average tumor weight: 0.04 ± 0.03 g

## CC1=C(c2ccc(O)cc2)[C@H](c2ccc(OCCN3CCCCC3)cc2)Oc2cc(O)ccc21 [EM-652]
[8]
  concentration at 6 months: 0.4 ng/mL
